Experiment [1] concerns Hif1 alpha. The experiment can be described thus: Western blot, Hif1 alpha levels. In kind it is cell-based, human. The procedure:
The Actin blots were stripped by incubating for 30 minutes with methanol, followed by two 10 minute washes with TBS-T, then 30 minutes of incubation with Stripping buffer at 50 deg C., and followed by two washes with 100 ml or more of TBS-T for 30′ each. The blots were scanned in laser scanner to check for complete stripping. The blots were activated with methanol for 5 seconds, washed with water for 5 minutes, and TBST for 15 minutes. The blots were blocked for 1 hour with 5% blocking reagent in TBS-T at room temperature and then washed 3 times with TBS-T (1X−15′; 2X5′ each) and probed with the primary antibody for Hif 1 alpha, Caspase 3 or PDHB in 5% BSA (at 1:200 by incubation overnight at 4 deg C. with gentle shaking. The primary antibody for Hif 1 alpha (Abcam ab2185; antirabbit) was at 1:500 dilution in 5% BSA. The primary antibody for Caspase 3 (Santacruz sc7272; antirabbit) was at 1:200 dilution in 5% BSA. The primary antibody for Pyruvate Dehydrogenase beta (PDHB) (Novus Biologicals H00005162-M03; antimouse) was at 1:500 dilution in 5% BSA. After incubation with primary antibodies, the membranes were washed 3 times with TBS-T (1X−15′; 2X5′ each) and probed with the secondary antibody (PDHB antimouse; Hif 1a and Caspase 3 antirabbit; 1:10,000 dilution) for 1 h at room temperature. […]
For orientation: A western blot detects proteins with antibodies after separation by electrophoresis.

Experiment [2] deals with HK-2 cells. The experiment can be described thus: Diabetes PCR array. In kind it is cell-based, human. The note with it: HK2(H) cells, 22 mM glucose; particularly 100 μM. The method, then: The HK-2 and HASMC cells are normally maintained in culture at 5.5 mM glucose, which is a concentration that corresponds to a range considered normal in human blood. However, in order to simulate a diabetic environment, both cell lines were subsequently maintained at 22 mM glucose, which corresponds to the range observed in human blood associated with chronic hyperglycemia. The cells were subsequently allowed to propagate over 3 passages so that the intracellular regulation processes were functionally adapted to mimic a diabetic state. The choice of cell line was based on the physiologic influence of diabetes on renal dysfunction and progression to end-stage renal disease (ESRD) in addition to the progressive pathophysiology of a compromised cardiovascular function.
The Diabetes PCR array (SABiosciences) offers a screen for 84 genes simultaneously.
A stringent analysis of the Real time PCR data of the HK-2 samples on the Diabetes Arrays (Cat #PAHS-023E, SABiosciences Frederick Md.) was made to exclude all results where gene regulation was not at least a two-fold regulation over HK-2 normal untreated cells with a p value of less than 0.05.

Experiment [3] has as its system SKBr3. Kind of experiment: Nexin assay for apoptosis (Annexin-V-PE/7-AAD, flow cytometry). It is filed as cell-based, human. The note with it: 50 μM or 100 μM Q10, 24 hours. An excerpt: (§1) The 7AAD dye will enter into cells with permeabilized cell membranes; primarily those cells that are in late apoptosis. Annexin-V-PE is a dye that binds to Phosphotidyl serine, which is exposed on the outer surface of the plasma membrane in early apoptotic cells. The Nexin reagent thus can be used to differentiate between different populations of apoptotic cells in a flow cytometer.
In general terms: Flow cytometry measures light scatter and fluorescence of single cells or particles in a stream.

For experiment [4], the system named is Pancreatic Cancer Cells (PaCa2). Kind of experiment: Real-time PCR Diabetes Array. The following applies: 100 uM Q10. It is filed as cell-based. The method, then:
Experiments were carried out essentially as described above.

Experiment [5] concerns SCC cells. Kind of experiment: Real-time PCR Diabetes Array. It is filed as cell-based. An excerpt:
The control cells were untreated cells.
In general terms: Quantitative PCR measures a nucleic acid by following its amplification.

The subject of experiment [6] is induced pancreatic cancer. The following applies: for survival after 28 days: intravenous.
The test system of experiment [7] is PC-3. The experiment can be described thus: Nexin assay for apoptosis (Annexin-V-PE/7-AAD, flow cytometry). In kind it is cell-based. The following applies: 50 μM and 100 μM Q10, 24 hours, less than in PaCa2.
Source text: as §1

Experiment [8] has as its system SK-MEL28. The experiment is described as above. In kind it is cell-based. The note with it: 50 μM and 100 μM Q10, 24 hours.
Source text: as §1

Experiment [9] relates to MCF-7. The experiment is described as above. In kind it is cell-based. The following applies: 50 μM and 100 μM Q10, 24 hours.
Source text: as §1

Where two headings read alike, the source gives them in different places.

1 compound from patent US10519504B2, “Methods for treatment of oncological disorders using epimetabolic shifters, multidimensional intracellular molecules, or environmental influencers” (Berg LLC, priority 2009, dated 2019) can be followed below.

With `COC1=C(OC)C(=O)C(C/C=C(\C)CC/C=C(\C)CC/C=C(\C)CC/C=C(\C)CC/C=C(\C)CC/C=C(\C)CC/C=C(\C)CC/C=C(\C)CC/C=C(\C)CCC=C(C)C)=C(C)C1=O` [Q10, Coenzyme Q10], the “Hif1 alpha protein levels” value in experiment [1] (mitochondrial preparations of cancer cells) is recorded as “decreased Hif1 alpha protein levels”. Further, the Hif1a lower band entry in experiment [1] (whole cell lysates of normal cells) is recorded as “showed a decrease as well”. Besides, in [2], the “CEACAM1 RNA transcript” value is given as “highly upregulated”. For the same compound, the “early and late apoptosis” value in experiment [3] is “did not show any significant increases of early and late apoptosis”. Moreover, in experiment [4], the “diabetes array genes (ABCC8, ACLY, ADRB3 ... IL4R, IL6 as listed)” value was “modulated by Q10 treatment”. The “TNFRSF1A Regulation” value in [5] (100 μM Q10, at 6 and 24 hours) is “Down regulated at 6”. In addition, in [5] (100 μM Q10, at 6 hours), the “G6PD Regulation” value is reported as “Down regulated at 6”, the “ICAM1 Regulation” value is “Down regulated at 6”, the “INPPL1 Regulation” value is “Down regulated at 6” and the “NOS3 Regulation” value is on record as “Down regulated at 6”. In addition, in experiment [5] (100 μM Q10, at 6 hours), the “PIK3CD Regulation” value was “Down regulated at 6”, the “PPARA Regulation” value was “Down regulated at 6”, the “PYGL Regulation” value is “Down regulated at 6” and the “SREBF1 Regulation” value is “Down regulated at 6”. Moreover, in experiment [5] (100 μM Q10, at 6 hours), the “STXBP2 Regulation” value was “Down regulated at 6”, the “TNF Regulation” value was “Down regulated at 6” and the “VEGFA Regulation” value is “Down regulated at 6”. In addition, the “dose response of survival” value in experiment [6] (5 to 50 mg/kg) is given as “those animals receiving higher doses had a higher survival rate”. The “survival after 28 days” value in experiment [6] (Group G: 50 mg/kg) is given as “all of the animals receiving the highest dose of coenzyme Q10 (Group G) remained alive at 28 days”. In addition, the “survival after 28 days” value in experiment [6] (Groups D, E, F: 5, 10, 25 mg/kg) was “most of the animals in Groups D, E and F remained alive”. Further, the “early and late apoptotic population” value in experiment [7] is “increase in both early and late apoptotic population”. For the same compound, the apoptotic population result in experiment [8] was “increase only in early apoptotic population”. Besides, the apoptotic population entry in experiment [9] is reported as “increase only in early apoptotic population”.
